# Test results published in patent US20090318468A1, “PYRAZOLE COMPOUNDS 436” (AstraZeneca AB, priority 2008, published 2009).
# Values joined by “and” are separate entries in the source; they are usually repeats but may differ in a detail not shown here. Equal entries are not always repeated.
# Target: T1, FGFR1 IIIc (Homo sapiens, UniProt P11362)
# T1 construct: expressed in transfected cells; host or cells: Cos-1
# Experiment: Cell FGFR1 (ECHO): inhibition of transiently expressed FGFR1 IIIc phosphorylation in Cos-1 cells
# Assay type: cell-based
# Conditions: Cos-1 cells transiently expressing FGFR1 IIIc, 1 hour incubation; read-out: IC50 (inhibition of phosphorylated FGFR1)
# From the text: Cell FGFR1 (ECHO)—Cell Based Inhibition of Transiently Expressed FGFR1 IIIc Phosphorylation via use of ECHO Technology (Measured using Phospho-Specific Primary and Fluorescent Secondary Antibodies).
# This assay is designed to detect inhibitors of transiently expressed FGFR1 phosphorylation by antibody staining of fixed cells detected using ArrayScan technology.
# Cos-1 cells were routinely passaged in DMEM (Gibco BRL, 41966) plus 3% foetal calf serum (FCS), 1% L-glutamine (Gibco BRL, 25030) to a confluence of 80%. To undertake the assay, Cos-1 cells were harvested at 90-95% confluence for cell transfection. For each 96-well plate, 24 μl Lipofectamine 2000 was added to 809 ul OptiMEM and incubated at room temperature for 5 minutes. For each 96 well plate, 20 ug 3′ FLAG tagged FGFR1/pcDNA3.1 (In-house clone15, MSD 4793) was diluted with OptiMEM to a total volume of 833 μl. Equal volumes of DNA and Lipofectamine 2000 were combined (DNA: Lipid=1:1.2 ratio) and incubated at room temperature for 20 minutes.
# The harvested Cos-1 cells are counted using a coulter counter and diluted further with 1% FCS/DMEM to 2.5×10^5 cells/ml. For each 96-well, 8.33 ml cells were required. […]
# Media was removed from the wells using vacuum aspiration; cells were fixed by adding 50 μl of 100% methanol to each well and incubated at room temperature for 20 minutes. […] The plates were read on an Arrayscan (Cellomics). […]
# T1 sequence (P11362 22-822): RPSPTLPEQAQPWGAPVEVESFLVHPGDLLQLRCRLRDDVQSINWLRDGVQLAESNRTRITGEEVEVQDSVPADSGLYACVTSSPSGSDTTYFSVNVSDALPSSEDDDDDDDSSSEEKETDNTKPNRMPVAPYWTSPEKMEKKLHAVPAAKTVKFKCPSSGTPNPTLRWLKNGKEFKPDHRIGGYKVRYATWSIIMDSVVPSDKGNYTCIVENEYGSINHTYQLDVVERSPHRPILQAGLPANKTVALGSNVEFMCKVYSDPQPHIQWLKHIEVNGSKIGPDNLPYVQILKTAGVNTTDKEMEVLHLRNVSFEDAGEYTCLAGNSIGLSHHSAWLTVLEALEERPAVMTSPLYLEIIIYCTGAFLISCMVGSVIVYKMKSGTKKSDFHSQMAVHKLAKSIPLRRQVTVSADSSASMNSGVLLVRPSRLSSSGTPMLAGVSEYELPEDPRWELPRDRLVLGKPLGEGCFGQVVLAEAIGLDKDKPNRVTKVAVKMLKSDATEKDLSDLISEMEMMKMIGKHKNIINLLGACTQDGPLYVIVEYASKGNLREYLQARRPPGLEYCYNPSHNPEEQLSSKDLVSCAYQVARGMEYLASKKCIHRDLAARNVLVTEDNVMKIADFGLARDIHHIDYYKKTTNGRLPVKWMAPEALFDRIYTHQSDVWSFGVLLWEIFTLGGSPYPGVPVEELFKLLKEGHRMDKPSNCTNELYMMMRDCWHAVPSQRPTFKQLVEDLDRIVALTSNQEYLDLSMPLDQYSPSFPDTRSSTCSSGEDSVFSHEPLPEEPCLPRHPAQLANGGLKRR
smiles,measurement,value
"COc1cc(CCc2cc(NC(=O)c3ccc(N4CCN(C)[C@H](C)C4)cc3)[nH]n2)cc(OC)c1 [Example 1b, (R)—N-(3-(3,5-Dimethoxyphenethyl)-1H-pyrazol-5-yl)-4-(3,4-dimethylpiperazin-1-yl)benzamide]",IC50,< 10 nM and 1.1 nM and 2.2 nM and 4.8 nM
